Columns and labels:
CHO-K1 cells [1] = test: Flow cytometric analysis of GFP expression (MFI, high fluorescing cells) in stably selected cell populations; type: cell-based, Chinese hamster
Procedure, shortened: (§1)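 Suspension CHO-K1 nucleofected (1e7 cells, 5 µg linearized DNA) with GFP vectors carrying puromycin marker plus SV40-driven murine P5CS; seeded 2e5 viable cells/ml, selected with 10 µg/ml puromycin or in proline/ornithine-free medium ± added pressure, viability tracked over time. GFP read by flow cytometry (yellow channel, PI-excluded dead cells): MFI and % high fluorescers above set threshold.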

CHO-K1 cells [2] = test: Cell viability post-transfection of transfected cell populations under selection conditions; type: cell-based, Chinese hamster
Procedure, shortened: as §1

[3] = Table 11, day 19 post-transfection, pJF1555, CD-Fusion + 10 µg/ml Puromycin
[4] = Table 11, day 19 post-transfection, pJF1555, CD-Fusion w/o Pro + 0.25mM Pro + 10 µg/ml Puromycin
[5] = Table 13, day 19 post-transfection, pJF1555, CD-Fusion + 10 µg/ml Puromycin
[6] = Table 13, day 19 post-transfection, pJF1555, CD-Fusion w/o Pro + 0.25 mM Pro + 10 µg/ml Puromycin
[7] = Table 13, day 19 post-transfection, pJF1576 (control, human IgG1 vector), CD-Fusion + 10 µg/ml Puromycin
[8] = day 15 post-transfection, pJF1555, CD Fusion + 10 µg/ml Puromycin
[9] = day 15 post-transfection, pJF1555, CD-Fusion w/o Pro + 10 µg/ml Puromycin
[10] = day 15 post-transfection, pJF1555, CD-Fusion w/o Pro + 0.25 mM Pro + 10 µg/ml Puromycin
[11] = day 20 post-transfection, pJF1556, CD Fusion + 10 µg/ml Puromycin
[12] = day 20 post-transfection, pJF1556, CD-Fusion w/o Pro + 10 µg/ml Puromycin
[13] = day 20 post-transfection, pJF1556, CD-Fusion w/o Pro + 0.25 mM Pro + 10 µg/ml Puromycin
[14] = day 22 post-transfection, pJF2053, CD-Fusion + 10 µg/ml Puromycin
[15] = day 22 post-transfection, pJF2222, CD-Fusion + 10 µg/ml Puromycin
[16] = day 29 post-transfection, pJF2053, CD-Fusion + 10 µg/ml Puromycin
[17] = MOCK, CD Fusion + 10 µg/ml Puromycin
[18] = MOCK, CD-Fusion w/o Pro + 10 µg/ml Puromycin
[19] = MOCK, CD-Fusion w/o Pro + 0.25 mM Pro + 10 µg/ml Puromycin
[20] = pJF1555, CD-Fusion w/o Pro + 0.25 mM Pro + 10 µg/ml Puromycin
[21] = pJF1576, CD-Fusion + 10 µg/ml Puromycin
[22] = pJF2053, CD-Fusion + 10 µg/ml Puromycin

COc1ccc(C[C@H](N)C(=O)N[C@H]2[C@@H](O)[C@H](n3cnc4c(N(C)C)ncnc43)O[C@@H]2CO)cc1 [Puromycin]
Frequency of high fluorescing cells (CHO-K1 cells [1]; Table 9, day 15 post-transfection, pJF1555, CD-Fusion w/o Pro + 0.25 mM Pro + 10 µg/ml Puromycin): 4.3%
Frequency of high fluorescing cells (CHO-K1 cells [1]; [3]): 3.4%
Median Fluorescence Intensity (MFI) (yellow) (CHO-K1 cells [1]; [3]): 13092
Frequency of high fluorescing cells (CHO-K1 cells [1]; [4]): 3.6%
Median Fluorescence Intensity (MFI) (yellow) (CHO-K1 cells [1]; [4]): 12860
Frequency of high fluorescing cells (CHO-K1 cells [1]; [5]): 1.0%
Median Fluorescence Intensity (MFI) (yellow) (CHO-K1 cells [1]; [5]): 6167
Frequency of high fluorescing cells (CHO-K1 cells [1]; [6]): 1.5%
Median Fluorescence Intensity (MFI) (yellow) (CHO-K1 cells [1]; [6]): 6625
Frequency of high fluorescing cells (CHO-K1 cells [1]; [7]): 0.1%
Median Fluorescence Intensity (MFI) (yellow) (CHO-K1 cells [1]; [7]): 9
Frequency of high fluorescing cells (CHO-K1 cells [1]; [8]): 5.1%
Median Fluorescence Intensity (MFI) (yellow) (CHO-K1 cells [1]; [8]): 5072
Frequency of high fluorescing cells (CHO-K1 cells [1]; [9]): 5.1%
Median Fluorescence Intensity (MFI) (yellow) (CHO-K1 cells [1]; [9]): 5102
Frequency of high fluorescing cells (CHO-K1 cells [1]; [10]): 4.6%
Median Fluorescence Intensity (MFI) (yellow) (CHO-K1 cells [1]; [10]): 4394
Frequency of high fluorescing cells (CHO-K1 cells [1]; [11]): 6.9%
Median Fluorescence Intensity (MFI) (yellow) (CHO-K1 cells [1]; [11]): 7827
Frequency of high fluorescing cells (CHO-K1 cells [1]; [12]): 8.7%
Median Fluorescence Intensity (MFI) (yellow) (CHO-K1 cells [1]; [12]): 9370
Frequency of high fluorescing cells (CHO-K1 cells [1]; [13]): 9.6%
Median Fluorescence Intensity (MFI) (yellow) (CHO-K1 cells [1]; [13]): 8783
Frequency of high fluorescing cells (CHO-K1 cells [1]; [14]): 2.5%
Median Fluorescence Intensity (MFI) (yellow) (CHO-K1 cells [1]; [14]): 11308
Frequency of high fluorescing cells (CHO-K1 cells [1]; [15]): 4.2%
Median Fluorescence Intensity (MFI) (yellow) (CHO-K1 cells [1]; [15]): 11476
Frequency of high fluorescing cells (CHO-K1 cells [1]; [16]): 2.3%
Median Fluorescence Intensity (MFI) (yellow) (CHO-K1 cells [1]; [16]): 11502
Viability on day 12 post-transfection (CHO-K1 cells [2]; [17]): 25%
Viability on day 13 post-transfection (CHO-K1 cells [2]; [17]): 9%
Viability on day 14 post-transfection (CHO-K1 cells [2]; [17]): 19%
Viability on day 13 post-transfection (CHO-K1 cells [2]; [18]): 14%
Viability on day 14 post-transfection (CHO-K1 cells [2]; [18]): 23%
Viability on day 12 post-transfection (CHO-K1 cells [2]; [19]): 23%
Viability on day 13 post-transfection (CHO-K1 cells [2]; [19]): 13%
Viability on day 14 post-transfection (CHO-K1 cells [2]; [19]): 20%
Viability on day 12 post-transfection (CHO-K1 cells [2]; Table 8, pJF1555, CD-Fusion w/o Pro + 0.25 mM Pro + 10 µg/ml Puromycin): 83%
Viability on day 12 post-transfection (CHO-K1 cells [2]; Table 12, pJF1555, CD-Fusion + 10 µg/ml Puromycin): 86%
Viability on day 12 post-transfection (CHO-K1 cells [2]; Table 12, pJF1555, CD-Fusion w/o Pro + 0.25 mM Pro + 10 µg/ml Puromycin): 63%
Viability on day 14 post-transfection (CHO-K1 cells [2]; pJF1555, CD Fusion + 10 µg/ml Puromycin): 75%
Viability on day 19 post-transfection (CHO-K1 cells [2]; pJF1555, CD-Fusion + 10 µg/ml Puromycin): 49%
Viability on day 14 post-transfection (CHO-K1 cells [2]; pJF1555, CD-Fusion w/o Pro + 10 µg/ml Puromycin): 79%
Viability on day 14 post-transfection (CHO-K1 cells [2]; [20]): 79%
Viability on day 19 post-transfection (CHO-K1 cells [2]; [20]): 48%
Viability on day 13 post-transfection (CHO-K1 cells [2]; pJF1556, CD Fusion + 10 µg/ml Puromycin): 81%
Viability on day 13 post-transfection (CHO-K1 cells [2]; pJF1556, CD-Fusion w/o Pro + 10 µg/ml Puromycin): 92%
Viability on day 13 post-transfection (CHO-K1 cells [2]; pJF1556, CD-Fusion w/o Pro + 0.25 mM Pro + 10 µg/ml Puromycin): 90%
Viability on day 12 post-transfection (CHO-K1 cells [2]; [21]): 78%
Viability on day 21 post-transfection (CHO-K1 cells [2]; [21]): 98.4%
Viability on day 12 post-transfection (CHO-K1 cells [2]; pJF1576, CD-Fusion w/o Pro + 0.25 mM Pro + 10 µg/ml Puromycin): 79%
Viability on day 21 post-transfection (CHO-K1 cells [2]; pJF1579, CD-Fusion + 10 µg/ml Puromycin): 98.8%
Viability on day 15 post-transfection (CHO-K1 cells [2]; [22]): 86.6%
Viability on day 22 post-transfection (CHO-K1 cells [2]; [22]): 98.6%
Viability on day 22 post-transfection (CHO-K1 cells [2]; pJF2222, CD-Fusion + 10 µg/ml Puromycin): 98.7%

Reference: patent EP3521435A1, “A HIGH STRINGENCY SELECTION SYSTEM FOR PROTEIN EXPRESSION IN PROLINE-AUXOTROPHIC CELLS” (Bayer AG, priority 2018, dated 2019)
